Data on 57 compounds can be found in article PMC7802075 (ACS Infectious Diseases, 2020).

Where a name gives a salt, the structure may show the parent alone.

Usually inhibition stands for the change of the read-out against control, counted positive when it falls.

The first experiment concerns the target T1, LmjIPCS (inositol phosphorylceramide synthase from L. major) (Leishmania major, UniProt E9AFX2).
T1 sequence (E9AFX2 1-338): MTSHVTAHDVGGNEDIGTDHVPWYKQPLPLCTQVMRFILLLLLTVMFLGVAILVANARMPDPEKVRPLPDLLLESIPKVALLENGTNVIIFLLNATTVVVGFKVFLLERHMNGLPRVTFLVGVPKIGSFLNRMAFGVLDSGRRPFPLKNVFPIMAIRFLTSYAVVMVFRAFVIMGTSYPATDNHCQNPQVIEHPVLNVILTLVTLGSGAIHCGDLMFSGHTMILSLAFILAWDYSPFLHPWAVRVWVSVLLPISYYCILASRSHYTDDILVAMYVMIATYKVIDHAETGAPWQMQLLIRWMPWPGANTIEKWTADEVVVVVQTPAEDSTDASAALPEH
As to the kind of experiment: biochemical. The format is biochemical. On the set-up: inhibition: dose or concentration left out as unconfirmed.
Details: not given
`CC(=O)OCC[N+](C)(C)C` [ACETYLCHOLINE]: the “20mM inhibition LmjIPCS” value worked out at 58%.
With `CC(=O)N[C@@H](CS)C(=O)O` [ACETYLCYSTEINE], the “20mM inhibition LmjIPCS” value was 53%.
Take `CC(=O)N[C@@H]1[C@@H](O)[C@H](O)[C@@H](CO)O[C@H]1O` [ACETYLGLUCOSAMINE]: the “20mM inhibition LmjIPCS” value was -19%.
On the same count and under the same terms, the figure for `N[C@H](C(=O)O)[C@@H]1CC(Cl)=NO1` [ACIVICIN] is 39%; for `CCCCCCc1ccc(O)cc1O.Nc1c2ccccc2nc2ccccc12` [ACRISORCIN] it is 30%.
Turning to `Nc1ncnc2c1ncn2[C@@H]1O[C@H](CO)[C@@H](O)[C@H]1O` [ADENOSINE], the “20mM inhibition LmjIPCS” value is 41%.
On the same count and under the same terms, for `O=c1ccc2cc(O[C@@H]3O[C@H](CO)[C@@H](O)[C@H](O)[C@H]3O)c(O)cc2o1` [AESCULIN] the value was 10%; for `CC[C@@]1(O)C[C@H](O[C@H]2C[C@H](N(C)C)[C@H](O)[C@H](C)O2)c2c(cc3c(c2O)C(=O)c2c(O)cccc2C3=O)[C@H]1C(=O)OC` [AKLAVINE], 59%; for `CC(N)C(=O)OC(C)(C)Cc1ccc(Cl)cc1` (stereo not drawn) [ALAPROCLATE], 36%.
`COc1cc2nc(N(C)CCCNC(=O)C3CCCO3)nc(N)c2cc1OC` (stereo not drawn) [ALFLUZOCIN]: the “20mM inhibition LmjIPCS” value is 8%.
Same read-out and setting: the figure for `Oc1ncnc2[nH]ncc12` [ALLOPURINOL] is 56%; for `Nc1c(Br)cc(Br)cc1CN[C@H]1CC[C@H](O)CC1` [AMBROXOL] it is 53%; for `N=C(N)NC(=O)c1nc(Cl)c(N)nc1N` [AMILORIDE] it is 52%.
On the same count and under the same terms, the figure for `CCC1(c2ccc(N)cc2)CCC(=O)NC1=O` (stereo not drawn) [AMINOGLUTETHIMIDE] is 56%; for `NCC(O)CC(=O)O` (stereo not drawn) [AMINOHYDROXYBUTYRIC ACID] it is 4%.
Same read-out and setting: for `Nc1ccncc1` [AMINOPYRIDINE] the value was -4.7%.
For the compound `Nc1ccc(C(=O)O)c(O)c1` [AMINOSALICYLATE SODIUM], the “20mM inhibition LmjIPCS” value is 43%.
On the same count and under the same terms, the figure for `Cc1ccc(/N=C/N(C)/C=N/c2ccc(C)cc2C)c(C)c1` [AMITRAZ] is 55%.
Same read-out and setting: the figure for `CCN(CC)Cc1cc(Nc2ccnc3cc(Cl)ccc23)ccc1O` [AMODIAQUINE] is 59%; for `CC1(C)S[C@@H]2[C@H](NC(=O)[C@H](N)c3ccc(O)cc3)C(=O)N2[C@H]1C(=O)O` [AMOXICILLIN] it is 41%; for `CCCc1ncc(C[n+]2ccccc2C)c(N)n1` [AMPROLIUM] it is 44%.
Turning to `C[C@]12CC[C@@H](OS(=O)(=O)O)C[C@@H]1CC[C@@H]1[C@@H]2CC[C@]2(C)C(=O)CC[C@@H]12` [ANDROSTERONE Sulfate], the “20mM inhibition LmjIPCS” value was determined as 33%.
In the case of `CN1[C@H]2C[C@H](OC(=O)[C@H](CO)c3ccccc3)C[C@@H]1[C@@H](O)C2` [ANISODAMINE], the “20mM inhibition LmjIPCS” value stood at 16%.
On to `c1ccc(CN(CC2=NCCN2)c2ccccc2)cc1` [ANTAZOLINE], for which the “20mM inhibition LmjIPCS” value was 61%.

The experiment is the same for the next values; noted with them: NINDS set screen, single concentration 20mM as printed.
With `CNC[C@H](O)c1ccc(O)c(O)c1.O=C(O)C(O)C(O)C(=O)O` [ADRENALINE BITARTRATE], the “20mM inhibition LmjIPCS” value was -5.34%.

Still in this experiment, the particulars now being: NINDS set screen, single concentration printed as 20mM.
`CCN(CC)CCOC(=O)C(c1ccccc1)c1ccccc1` [ADIPHENINE]: the “20mM inhibition LmjIPCS” value was 51%.
Still for that read-out and setting: for `CCCCC(CC)CNC(=N)NC(=N)NCCCCCCNC(=N)NC(=N)NCC(CC)CCCC` (stereo not drawn) [ALEXIDINE] the value was 47%.

Still in this experiment, the particulars now being: NINDS set screen; read-out: inhibition LmjIPCS.
For the compound `C=CCSCC1Nc2cc(Cl)c(S(N)(=O)=O)cc2S(=O)(=O)N1` (stereo not drawn) [ALTHIAZIDE], the inhibition amounted to 11%.
Same read-out and setting: the figure for `NCC[C@H](O)C(=O)N[C@@H]1C[C@H](N)[C@@H](O[C@H]2O[C@H](CN)[C@@H](O)[C@H](O)[C@H]2O)[C@H](O)[C@H]1O[C@H]1O[C@H](CO)[C@@H](O)[C@H](N)[C@H]1O` [AMIKACIN] is 21%.

Still in this experiment, the particulars now being: read-out: 20mM inhibition LmjIPCS.
`CC(=O)N[C@@H](CC(C)C)C(=O)O` [ACETYL-L-LEUCINE]: the inhibition at 20000 µM turned out to be 8%.
As to `CC(=O)O[C@H](CC(=O)[O-])C[N+](C)(C)C` [ACETYLCARNITINE], the inhibition at 20000 µM is -17%.
`CC(=O)N[C@@H](Cc1c[nH]c2ccccc12)C(=O)O` [ACETYLTRYPTOPHAN]: the inhibition at 20000 µM is -17%.
As to `CC(=O)N[C@@H](CCC(=O)O)C(=O)O` [ACET[…]], the inhibition at 20000 µM is -20%.
As to `Nc1nc2c(ncn2COCCO)c(=O)[nH]1` [ACYCLOVIR], the inhibition at 20000 µM is 5%.
On to `NCCCCN=C(N)N` [AGMATINE SULFATE], for which the inhibition at 20000 µM is 24%.
Still for that read-out and setting: for `CC[C@H]1[C@@H]2C[C@H]3[C@@H]4N(C)c5ccccc5[C@]45C[C@@H]([C@H]2[C@H]5O)N3[C@@H]1O` [AJMALINE] the value was 23%; for `NC(=O)NC1NC(=O)NC1=O` (stereo not drawn) [ALLANTOIN], 18%; for `O=C1NC(=O)C(=O)C(=O)N1` [ALLOXAN], -1.11%.
Still for that read-out and setting: for `CN(C)CCc1c[nH]c2ccc(CS(=O)(=O)N3CCCC3)cc12` [ALMOTRIPTAN] the value was 5%; for `CN(C)c1nc(N(C)C)nc(N(C)C)n1` [ALTRETAMINE], 4%.
Consider `NC12CC3CC(CC(C3)C1)C2` [AMANTADINE], for which the inhibition at 20000 µM worked out at 30%.
Still for that read-out and setting: the figure for `CC(=O)OCC(=O)[C@@]12OC3(CCCC3)O[C@@H]1C[C@H]1[C@@H]3CCC4=CC(=O)C=C[C@]4(C)[C@@]3(F)[C@@H](O)C[C@@]12C` [AMCINONIDE] is 11%.
On the same count and under the same terms, for `Nc1c2ccccc2nc2ccccc12` [AMINACRINE] the value was -11%; for `Nc1nc(N)c2nc(CNc3ccc(C(=O)N[C@@H](CCC(=O)O)C(=O)O)cc3)cnc2n1` [AMINOPTERIN], 0.247%.
For the compound `Nc1nccs1` [AMINOTHIAZOLE], the inhibition at 20000 µM is -32%.
Still for that read-out and setting: the figure for `N#C[C@H](O[C@@H]1O[C@H](CO[C@@H]2O[C@H](CO)[C@@H](O)[C@H](O)[C@H]2O)[C@@H](O)[C@H](O)[C@H]1O)c1ccccc1` [AMYGDALIN] is -4%.

The same experiment, now with this note: read-out: inhibition LmjIPCS.
On to `NCC(=O)CCC(=O)O` [AMINOLEVULINIC ACID], for which the inhibition was found to be 28%.
Regarding `Cc1c(N(C)C)c(=O)n(-c2ccccc2)n1C` [AMINOPHENAZONE], the inhibition is -19%.
Regarding `CC1(C)S[C@@H]2[C@H](NC(=O)[C@H](N)c3ccccc3)C(=O)N2[C@H]1C(=O)O` [AMPICILLIN], the inhibition is 29%.

The experiment is the same for the next values; noted with them: screening of NINDS set, sheet Screen 1; read-out: inhibition LmjIPCS.
On to `CCOC(=O)C(Cc1ccc(O)cc1)NC(C)=O` (stereo not drawn) [ACETYL TYROSINE ETHYL ESTER], for which the inhibition was 3%.
Same read-out and setting: for `CC(=O)N[C@@H](Cc1c[nH]c2ccccc12)C(N)=O` [ACETYLTRYPTOPHANAMIDE] the value was 1.65%; for `CC(=O)NCCCCCC(=O)O` [ACEXAMIC ACID], 6%.
Same read-out and setting: for `NC(=O)c1ccc([N+](=O)[O-])cc1Cl` [AKLOMIDE] the value was 4%.
The same measure, in the same setting: for `Nc1ccc(C(=O)NCC(=O)O)cc1` [AMINOHIPPURIC ACID] the value was 7%; for `CN(C)CCCO[C@@H]1[C@H]2OC(C)(C)O[C@H]2O[C@@H]1[C@H](O)CO` [AMIPRILOSE], 4%; for `COc1ccc(C2C(=O)c3ccccc3C2=O)cc1` [ANISINDIONE], 10%.

The experiment is the same for the next values; noted with them: single concentration 20mM as printed; screening of NINDS set, sheet Screen 1.
`NC1(C(=O)O)CC1` [AMINOCYCLOPROPANECARBOXYLIC ACID]: the “20mM inhibition LmjIPCS” value stood at 9%.
